The record followed here is US20160129078A1, “Rhomboid Proteins and Uses Thereof” (Queen's University at Kingston, priority 2014, published 2016).

The subject of experiment [1] is yeast. As to the kind of experiment: Sensitization of yeast to fungicidal agents AmB and Nys. Format: cell-based, Saccharomyces cerevisiae. Particulars: range of 0 to 1% (v/v), no rhomboid protein, one hour.
The subject of experiment [2] is yeast. The experiment is described as above. It is filed as cell-based, Saccharomyces cerevisiae. Particulars: for yeast cell survival, fungicide alone: sub-lethal levels (1% AmB, 0.5% Nys), no rhomboid protein; for sensitization of yeast to antifungals AmB and Nys: exogenous protein co-delivered with sub-lethal AmB and Nys, as Example 13. As for the experimental part:
Experiments were conducted to assess the ability of the Arabidopsis At1g74130 proteins or variants to sensitize yeast to the antifungal agents Amphotericin B (AmB) and Nystatin (Nys). Overall, these assays were conducted in a manner similar to that designed for bacteria (Example 9). In addition to the components mixed with the added proteins or variants, the antifungal AmB was also utilized as part of the delivery system. The AmB drug contains small quantities of the detergent deoxycholate, which may also assist in the delivery of proteins into the cell, as well as function as a pore forming agent itself. […] The effective co-delivery sub-lethal concentrations of the two antifungal agents or protein had little or no effect when provided individually. FIGS. 17 and 18 show results of the yeast sensitivity assays for AmB and Nys. […] In FIG. 17, the “Yeast Control” bars represent yeast cells given mock treatments with culture media (YPD) alone, YPD plus 1% AmB, YPD plus 0.5% Nys, and YPD plus 1% AmB and 0.5% Nys, respectively. The “BSA Control” bars represent another set of mock treatments with yeast cells. This set utilized the same set-up as the Yeast Control set but with added control bovine serum albumin proteins (BSA) (dissolved in the elution buffer, the same buffer used for the purification of the recombinant At1g74130 rhomboid proteins or variants). These assays represent another variation of negative controls for rhomboid protein. The “Elution Control” bars represent yeast cells mock treated using the same set-up as in the Yeast Control set but with added elution buffer alone. This variation of control assays was designed to assess for potential toxic impacts when combining elution buffer and the listed drugs, as well any effects originating from components of the elution buffer itself. The composition of the elution buffer is provided above in Example 5. With the exception of Nys, these treatments represent the first step and occur for 45 minutes before the second step when exposure to fungicides takes place. Within each set of bars, where applicable, the second 15-minute step treatment occurred with a sub-lethal dose of Nys. After a total of one hour, the treated yeast cells were plated on non-selective YPD agar plates. Plates were grown 2-3 days at 27-30° C. and assessed for surviving cell numbers (measuring cell death). Images were also taken to document cell and colony growth characteristics.
In the experimental assays, the sensitizing properties of At1g74130 or variants (sensitizing variants) were tested by adding 10 ug protein (At1g74130 or variants in elution buffer) to yeast cells (300-500 cells). To reiterate in all cases, the components were added to cultures and mixed for one hour, where Nys was added and incubated for the last 15 minutes of the treatment. Pre-treatment was designed to permit AmB and At1g74130 proteins to establish and work prior to adding Nys. After the one hour incubation, 500 cells were plated on non-selective YPD agar media and grown for 48 hours at 30′C.
The sub-lethal levels of fungicides to use in these assays were determined using dosage experiments. These assays were conducted on yeast cells without added rhomboid proteins or variants. The dosages of AmB tested ranged from 0 to 5% (v/v). […] Likewise, the Nys level was determined using a range of 0.5 to 2.5%. Yeast cells were treated for one hour with fungicides in a total volume of 400 μl YPD media before plating.
Since both the AmB buffer contained small quantities of detergent (deoxycholate being the main one), an experiment was done in which different amounts (1% and 10%) of deoxycholate were added to yeast cells to ascertain any effects. Adding deoxycholate had little effect on yeast.
This set of yeast assays was conducted in the same manner described above (Example 13) and employed the same controls and combinations. […]

The test system of experiment [3] is ampicillin resistant E. coli. Put plainly: Sensitization of bacteria to ampicillin by exogenous rhomboid protein. It is filed as cell-based, Escherichia coli. Here is the method:
Experiments were conducted to assess the ability of At1g74130 proteins or variants to sensitize bacteria to the antibiotic ampicillin, using “super-resistant” E. coli (multi-copy pET20b plasmid-based ampicillin-resistant lab strains). This model is considered the so-called “SuperBug” model, as commonly referred to in the public domain and media.
Control assays were conducted on cells without added At1g74130 or variants (sensitizing variants) to determine the delivery system to use and the appropriate levels of ampicillin to use. Control assays were also conducted to determine if the 5% (v/v) DMSO delivery system exerted any effects. Bacterial cells, usually 800-1000, were mock treated with Luria Broth (LB) media or 5% (v/v) DMSO for 15 minutes prior to exposure to a 30-45 minute exposure to ampicillin (1.25 mg/ml or 1.5 mg/ml). Total volumes of 200 μl were used in these assays. The treated-exposed cells were then plated onto non-selective LB agar plates and allowed to grow overnight to assess the level of cell death or susceptibility to ampicillin. The ampicillin range found useful for these assays was between 1.25 mg/ml to 1.5 mg/ml. This range mirrored the observations reported in an earlier section above with transgenic bacterial cells and ampicillin susceptibility. […]

Experiment [4] has as its system bacteria. As to the kind of experiment: Sensitization of bacteria to tetracycline by exogenous rhomboid protein. It is filed as cell-based, Escherichia coli. To be noted: tetracycline 15 ug/ml. As for the experimental part: Experiments were conducted to assess the ability and the utility of At1g74130 protein variants to sensitize bacteria to another antibiotic, tetracycline. In bacteria, tolerance or resistance to tetracycline is facilitated by a mechanism different from the ampicillin resistance assayed in Example 9. Unlike the breakdown of ampicillin outside the bacterial cells by secreted ampicilliase, tetracycline resistance in bacteria is based largely on the continual and effective pumping of tetracycline out of the cell by proteinaceous membrane pumps. To assess the utility of the At1g74130 for sensitizing bacteria to tetracycline, these bacterial assays were conducted in the same manner described in Example 9. The same controls and combinations were used. The final treatment level of tetracycline used in place of the ampicillin treatment was 15 ug/ml.
Experiments were conducted to assess the ability and the utility of a human rhomboid type or variant to sensitize bacteria to tetracycline. These bacterial assays were conducted in the same manner described above for the other rhomboid variants and in Example 9. The same controls and combinations were used. The At1g74130 L was the control for UBAC2 in this set of assays. The previously observed behaviours and responses were not observed for UBAC2 in this setting with the antibiotic tetracycline (FIG. 16).

Regarding `C[C@@H]1[C@H](O)[C@@H](C)/C=C/C=C/C=C/C=C/C=C/C=C/C=C/[C@H](O[C@@H]2O[C@H](C)[C@@H](O)[C@H](N)[C@@H]2O)C[C@@H]2O[C@](O)(C[C@@H](O)C[C@@H](O)[C@H](O)CC[C@@H](O)C[C@@H](O)CC(=O)O[C@H]1C)C[C@H](O)[C@H]2C(=O)O` [AmB, Amphotericin B, reference compound], the “surviving yeast colonies in dosage experiment” value in experiment [1] is “no significant differences”. Besides, the “yeast cell survival, fungicide alone” value in experiment [2] is on record as “small reduction in yeast cell survival”. For the molecule `C[C@@H]1[C@H](O)[C@@H](C)/C=C/C=C/CC/C=C/C=C/C=C/C=C/C(O[C@H]2O[C@H](C)[C@@H](O)[C@H](N)[C@@H]2O)CC2O[C@](O)(CC(O)C(O)CCC(O)CC(O)CC(O)CC(=O)O[C@H]1C)CC(O)C2C(=O)O` (stereo partly drawn) [Nys, Nystatin, reference compound], the “yeast cell survival, fungicide alone” value in experiment [2] is listed as “small reduction in yeast cell survival”. With `CC1(C)S[C@@H]2[C@H](NC(=O)[C@H](N)c3ccccc3)C(=O)N2[C@H]1C(=O)O` [ampicillin, reference compound], the “effect on bacteria when provided individually” value in experiment [3] (effective co-delivery concentration, without protein) is on record as “no effects”. deoxycholate: the effect on yeast entry in experiment [2] (1% and 10% added to yeast cells) is “little effect”.

B1: At1g25290 L: L-form Arabidopsis At1g25290 rhomboid protease, contains the RVL cyclin-binding domain (protein, listed as Arabidopsis thaliana)
chain: MVSVSLSHHNLWPPESGSTAFRGFATAASVHACHHVSRHLRLDFHLRSSLKKLQHFSDDARMKFARYQRVFVFNGANFLKSRVDIRLSQSSPFVCFFNGGESRLNPRGGEEGSSNPETSKRNTVNGRRWTNVLLAINVIMYIAQIASDGKVLTWGAKINSLIERGQLWRLATASVLHANPMHLMINCYSLNSIGPTAESLGGPKRFLAVYLTSAVARVLGSAMSYWFNKAPSVGASGAIFGLVGSVAVFVIRHKQMVRGGNEDLMQIAQIIALNMAMGLMSRR
For B1, the “sensitization of yeast to antifungals AmB and Nys” value in experiment [2] was “no activity”. In experiment [3] (exogenous protein, same manner as Example 9), the “sensitization of bacteria to ampicillin” value was “no activity”.

B2: UBAC2: human UBAC2 isoform 1, fusion between a rhomboid pseudoprotease sequence and ubiquitin-associating domains (protein, listed as Homo sapiens)
chain: MQYFFGITAASNLPSGFLAPVFALFVPFYCSIPRVQVAQILGPLSITNKTLIYILGLQLFTSGSYIWIVAISGLMSGLCYDSKMFQVHQVLCIPSWMAKFFSWTLEPIFSSSEPTSEARIGMGATLDIQRQQRMELLDRQLMFSQFAQGRRQRQQQGGMINWNRLFPPLRQRQNVNYQGGRQSEPAAPPLEVSEEQVARLMEMGFSRGDALEALRASNNDLNVATNFLLQH
As for B2, the “sensitization of bacteria to tetracycline” value in experiment [4] is on record as “not observed”. For the same molecule, in experiment [2], the “sensitization of yeast to antifungals AmB and Nys” value is recorded as “increased the sensitivity”.
